This note sets out measurements from patent US20070071686A1, “Liquid preparation containing tobramycin” (Pari GmbH, priority 2003, published 2007).

The data set is described as follows: Physicochemical characterisation of tobramycin solutions (pH, osmolality, dynamic viscosity, surface tension). The protocol:
Thus, aqueous solutions of tobramycin with a pH of 6.0 to 6.5 have a 50% greater viscosity (about 2.9 mPa·s) at a concentration of active agent of 180 mg/ml compared to a solution with 100 mg/ml (about 1.8 mPa·s). […] Under standard conditions, the preparations according to the present invention have a viscosity of about 1.4 to 2.3 mPa·s, and preferably a viscosity in the range of about 1.6 to 2.0 mPa·s. A viscosity of about 1.8 mPa·s is most preferred.
11.08 g of tobramycin, 5.41 g of sulfuric acid (96%), 0.2 g of sodium chloride and 90.95 g of water for injection are used as starting materials. All steps are carried out under aseptic conditions and under nitrogen gas. The water is provided first, to which the sulfuric acid is added. Then sodium chloride and the active agent are added one after the other. The mixture is stirred until complete dissolution of all solid components as determined by visual control. This yields about 100 ml of a solution which has a pH of about 6.0, an osmolality of about 0.22 Osmol/l, a dynamic viscosity of about 1.9 mPa·s and a surface tension of about 71 mN/m. This solution is filtered to sterility and filled into an infusion bottle with a volume of 100 ml. This bottle is tightly closed with a pierceable elastomer stopper and secured with an aluminium cap.
10.88 g of tobramycin, 5.41 g of sulfuric acid (96%), 0.2 g sodium chloride, 0.1 g Tween® 80 and 90.95 g of water for injection are used as starting materials. All steps take place under aseptic conditions and nitrogen gas. The water is provided first to which the sulfuric acid is added. Subsequently, tobramycin is added and dissolved at room temperature. Sodium chloride and Tween® are added to this solution. The mixture is stirred until a clear solution is formed. This yields about 100 ml of a solution which has a pH of about 6.2, an osmolality of about 0.22 Osmol/l, a dynamic viscosity of about 1.9 mPa·s and a surface tension of about 43 mN/m. The solution is filtered to sterility and filled aseptically into single dose containers of polypropylene at 2 ml each. […]

As for `NC[C@H]1O[C@H](O[C@H]2[C@H](O)[C@@H](O[C@H]3O[C@H](CO)[C@@H](O)[C@H](N)[C@H]3O)[C@H](N)C[C@@H]2N)[C@H](N)C[C@@H]1O` [tobramycin, O-3-amino-3-desoxy-α-D-glucopyranosyl(1→4)-O-[2,6-diamino-2,3,6-tridesoxy-α-D-ribo-hexopyranosyl-(1→6)]-2-deoxystreptamine], the viscosity result (aqueous solution, pH 6.0 to 6.5, 100 mg/ml) is “about 1.8 mPa·s”; the viscosity result (aqueous solution, pH 6.0 to 6.5, 180 mg/ml) is “about 2.9 mPa·s”; the viscosity result (comparable aqueous solution, 120 mg/ml) is reported as “about 2.1 mPa·s”.
